Measurements published in patent publication US20200345746A1, “Oxazine Derivative for Use in the Prevention of Alzheimer's Disease in at Risk Patents” (Novartis AG, priority 2016, published 2020).
Marks after values point to notes of the source that are not given here.

Legend:
C57BL/6 mice = experiment: Fur colour scoring, chronic 8-week dosing in wild-type mice; type: in vivo, mouse
Description: (§1) Compound 1 and NB-360 were formulated as a suspension. […] Vehicle: […] in 0.5% methylcellulose in water.
(§2) Body weight was taken 3 times per week (Monday, Wednesday, Friday). Subjective scoring of any hair colour changes was performed once weekly (Wednesday). Scores (% of body with grey fur): 0: No change; 1: Spots; 2: >30%; 3: >50%; 4: >75%; 5: 100%. Animals were photo-documented when fur color change was observed. Final fur color scoring was performed blinded and by a person not involved in the study.

[1] = Body weight, chronic 8-week dosing in wild-type mice; type: in vivo, mouse; settings: C57BL/6 mice, 8 weeks chronic treatment
Description: as §1, §2

[2] = Compound levels in blood, brain and skin of C57BL/6 mice (HPLC/MS/MS); settings: for AUCbrain (AUC0-24 h) / AUCventral skin (AUC0-24 h) / AUCdorsal skin (AUC0-24 h) / AUC(0-t): day 56; for AUCbrain (AUC0-24 h) / AUCventral skin (AUC0-24 h) / AUCdorsal skin (AUC0-24 h): from 4 and 24 h; for AUC(0-t): whole blood, po, AUCblood (AUC0-24 h)
Description: Blood samples were used to analyze whole-blood compound levels and were obtained either from tail-vein during the in-life part into EDTA tubes (CB300, Sarstedt, Germany) or from trunk blood at the day of necropsy into EDTA Eppendorf tubes (Milian S A, CatNoTOM-14, Fisher Scientific, Wohlen, Switzerland), or into serum tubes (CB300Z, Sarstedt, Nümbrecht, Germany).
Brain was removed immediately after decapitation, rinsed with saline and sectioned sagitally down the midline. The left half of the cerebellum was used to analyze compound level and was placed into a glass tube (Chromacol, 125×5-SV T051, Welwyn Garden City, United Kingdom), weighed and frozen in dry-ice, the left half of the forebrain (without olfactory bulb) was used for Aβ analysis, and was frozen on a metal plate on dry ice and placed into protein Lo-bind tube (003 0108.116, Eppendorf, Hamburg, Germany).
Ventral and dorsal skin were taken to analyze compound level, weighed and frozen on dry-ice.
Brain samples were mixed with 2 volumes of KH2PO4 buffer and homogenized using the Covaris® device. Skin samples were mixed with approx. 6-fold volumes of methanol/water and homogenized using a Precellys tube. Either 30 μL of blood, brain or skin homogenate were spiked with a structurally related internal standard and subsequently mixed with an at least 6-fold excess volume acetonitrile for protein precipitation. The supernatant was injected directly into the LC/MS/MS system for analysis.
For tissue exposure, only data at 4 and 24 h were available.

## Cc1cc(C#N)cnc1C(=O)Nc1ccc(F)c([C@]2(C)CO[C@@](C)(C(F)(F)F)C(N)=N2)c1 [NB-360, N-(3-((3R,6R)-5-amino-3,6-dimethyl-6-(trifluoromethyl)-3,6-dihydro-2H-1,4-oxazin-3-yl)-4-fluorophenyl)-5-cyano-3-methylpicolinamide]
C57BL/6 mice
  fur discoloration reached a plateau after: 5 weeks
C57BL/6 mice; 20 μmol/kg p.o. once daily, 8 weeks
  fur colour change: slight but significant fur score change
C57BL/6 mice; 100 μmol/kg p.o. once daily, 8 weeks
  fur colour change: more severe and profound fur color change
C57BL/6 mice; 20 and 100 μmol/kg groups, 8 weeks
  fur discoloration: All animals in the NB-360 group showed fur discoloration
C57BL/6 mice; high and low dose group
  appearance of grey patches apparent after: 3 weeks
[1]
  body weight difference compared to vehicle: No overall significant body weight difference
[2]; C57BL/6, 20 μmol/kg q.d.
  AUCbrain (AUC0-24 h): 16.39 µmol·h/kg
  AUCventral skin (AUC0-24 h): 104.81 µmol·h/kg
[2]; C57BL/6, 20 μmol/kg q.d., n = 2 for 24 h
  AUCdorsal skin (AUC0-24 h): 46.9^c μmol/kg · h
[2]; C57BL/6, 100 μmol/kg q.d.
  AUCbrain (AUC0-24 h): 114.45 µmol·h/kg
  AUCdorsal skin (AUC0-24 h): 294 µmol·h/kg
  AUCventral skin (AUC0-24 h): 712.16 µmol·h/kg
[2]; C57BL/6, mouse, brain / whole blood, oral
  Kp: 2.8
[2]; C57BL/6, mouse, 20 umol/kg, C57BL/6, 20 μmol/kg q.d., from 1, 4, 7, 24 h time points
  AUC(0-t): 6.93 µM·h
[2]; C57BL/6, mouse, 20 umol/kg, C57BL/6, 20 μmol/kg q.d., from 4 and 24 h time points
  AUC(0-t): 5.6 µM·h
[2]; C57BL/6, mouse, 100 umol/kg, C57BL/6, 100 μmol/kg q.d., from 1, 4, 7, 24 h time points
  AUC(0-t): 35.9 µM·h
[2]; C57BL/6, mouse, 100 umol/kg, C57BL/6, 100 μmol/kg q.d., from 4 and 24 h time points
  AUC(0-t): 25.3 µM·h
